Data published in US9265253B2, “Use of macrocyclic picolinamides as fungicides” (DOW AGROSCIENCES LLC, priority 2013, dated 2016).

test system: Mycosphaerella graminicola; Anamorph: Septoria tritici; test: Leaf Blotch of Wheat (SEPTTR) disease control; assay type: in vivo; details: Zymoseptoria tritici, 24 h, 1 Day Protectant, rate 100 ppm; read-out: SEPTTR 1 DP disease control
Outline: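 Percent disease control is derived from Septoria tritici leaf blotch severity (0 to 100 percent) on treated versus untreated wheat seedlings. Plants get fungicide spray to run-off, with inoculation either preceding or following application, then humid incubation at 20° C.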

Question: Which pest or weed control at 100 ppm does the source give for COc1ccnc(C(=O)N[C@H]2CCC[C@H](CCC(C)C)[C@@H](OCC3CC3)[C@H](C)OC2=O)c1OCOC(=O)C(C)C [Compound F149] here?
Answer: 80 to 100%

Question: CCOCC(=O)OCOc1c(OC)ccnc1C(=O)N[C@H]1CCC[C@H](CC)[C@@H](Oc2ccccc2)[C@H](C)OC1=O [Compound F189] was tested. Which pest or weed control at 100 ppm did it give?
Answer: 80 to 100%

Question: For COc1ccnc(C(=O)N[C@H]2CCC[C@H](C)[C@@H](Oc3ccccc3)[C@H](C)OC2=O)c1OCOC(=O)C(C)C [Compound F155], which pest or weed control at 100 ppm is on record?
Answer: 80 to 100%

Question: How did the pest or weed control at 100 ppm turn out when CCOCC(=O)OCOc1c(OC)ccnc1C(=O)N[C@H]1CCC[C@H](CCC(C)C)[C@@H](OCC2CC2)[C@H](C)OC1=O [Compound F160] was run?
Answer: 80 to 100%

Question: How did the pest or weed control at 100 ppm turn out when COc1ccc(C[C@H]2CCC[C@H](NC(=O)c3nccc(OC)c3O)C(=O)O[C@@H](C)[C@@H]2OCC2CC2)cc1 [Compound F30] was run?
Answer: 80 to 100%

same assay, conditions: Zymoseptoria tritici, 24 h, 1 Day Protectant, rate 121.5 g/H; read-out: SEPTTR 1 DP disease control

Question: COc1ccnc(C(=O)N[C@H]2CCC[C@H](CCC(C)C)[C@@H](OCC3CC3)[C@H](C)OC2=O)c1OCOC(=O)C(C)C [Compound F149] was tested. Which pest or weed control at 121.5 g/ha did it give?
Answer: 80 to 100%

Question: How did the pest or weed control at 121.5 g/ha turn out when CCOCC(=O)OCOc1c(OC)ccnc1C(=O)N[C@H]1CCC[C@H](CC)[C@@H](Oc2ccccc2)[C@H](C)OC1=O [Compound F189] was run?
Answer: 80 to 100%

Question: With COc1ccnc(C(=O)N[C@H]2CCC[C@H](C)[C@@H](Oc3ccccc3)[C@H](C)OC2=O)c1OCOC(=O)C(C)C [Compound F155] as the molecule, how does the pest or weed control at 121.5 g/ha read?
Answer: 80 to 100%

Question: For CCOCC(=O)OCOc1c(OC)ccnc1C(=O)N[C@H]1CCC[C@H](CCC(C)C)[C@@H](OCC2CC2)[C@H](C)OC1=O [Compound F160], which pest or weed control at 121.5 g/ha is on record?
Answer: 80 to 100%

same assay, conditions: Zymoseptoria tritici, 72 h, 3 Day Curative, rate 100 ppm; read-out: SEPTTR 3 DC disease control

Question: With COc1ccnc(C(=O)N[C@H]2CCC[C@H](CCC(C)C)[C@@H](OCC3CC3)[C@H](C)OC2=O)c1OCOC(=O)C(C)C [Compound F149] as the molecule, how does the pest or weed control at 100 ppm read?
Answer: 80 to 100%

Question: How did the pest or weed control at 100 ppm turn out when CCOCC(=O)OCOc1c(OC)ccnc1C(=O)N[C@H]1CCC[C@H](CC)[C@@H](Oc2ccccc2)[C@H](C)OC1=O [Compound F189] was run?
Answer: 80 to 100%

Question: Which pest or weed control at 100 ppm does the source give for COc1ccnc(C(=O)N[C@H]2CCC[C@H](C)[C@@H](Oc3ccccc3)[C@H](C)OC2=O)c1OCOC(=O)C(C)C [Compound F155] here?
Answer: 80 to 100%

Question: Which pest or weed control at 100 ppm does the source give for CCOCC(=O)OCOc1c(OC)ccnc1C(=O)N[C@H]1CCC[C@H](CCC(C)C)[C@@H](OCC2CC2)[C@H](C)OC1=O [Compound F160] here?
Answer: 80 to 100%

Question: COc1ccc(C[C@H]2CCC[C@H](NC(=O)c3nccc(OC)c3O)C(=O)O[C@@H](C)[C@@H]2OCC2CC2)cc1 [Compound F30] was tested. Which pest or weed control at 100 ppm did it give?
Answer: 80 to 100%

same assay, conditions: Zymoseptoria tritici, 72 h, 3 Day Curative, rate 121.5 g/H; read-out: SEPTTR 3 DC disease control

Question: For COc1ccnc(C(=O)N[C@H]2CCC[C@H](CCC(C)C)[C@@H](OCC3CC3)[C@H](C)OC2=O)c1OCOC(=O)C(C)C [Compound F149], which pest or weed control at 121.5 g/ha is on record?
Answer: 80 to 100%

Question: CCOCC(=O)OCOc1c(OC)ccnc1C(=O)N[C@H]1CCC[C@H](CC)[C@@H](Oc2ccccc2)[C@H](C)OC1=O [Compound F189] was tested. Which pest or weed control at 121.5 g/ha did it give?
Answer: 80 to 100%

Question: Which pest or weed control at 121.5 g/ha does the source give for COc1ccnc(C(=O)N[C@H]2CCC[C@H](C)[C@@H](Oc3ccccc3)[C@H](C)OC2=O)c1OCOC(=O)C(C)C [Compound F155] here?
Answer: 80 to 100%

Question: How did the pest or weed control at 121.5 g/ha turn out when CCOCC(=O)OCOc1c(OC)ccnc1C(=O)N[C@H]1CCC[C@H](CCC(C)C)[C@@H](OCC2CC2)[C@H](C)OC1=O [Compound F160] was run?
Answer: 80 to 100%

test system: Phakopsora pachyrhizi; test: Asian Soybean Rust (PHAKPA) disease control; assay type: in vivo; details: Phakopsora pachyrhizi, topical, 24 h, 1 Day Protectant, read-out: Disease Control PHAKPA 1DP
Procedure: Technical grades of materials were dissolved in acetone, which were then mixed with nine volumes of water containing 0.011% Tween 20. The fungicide solutions were applied onto soybean seedlings using an automated booth sprayer to run-off. All sprayed plants were allowed to air dry prior to further handling.
Soybean plants (variety Williams 82) were grown in soil-less Metro mix, with one plant per pot. Two weeks old seedlings were used for testing. Plants were inoculated either 3 days prior to or 1 day after fungicide treatments. Plants were incubated for 24 h in a dark dew room at 22° C. and 100% RH then transferred to a growth room at 23° C. for disease to develop. Disease severity was assessed on the sprayed leaves.

Question: Which pest or weed control at 25 ppm does the source give for COc1ccnc(C(=O)N[C@H]2CCC[C@H](CCC(C)C)[C@@H](OCC3CC3)[C@H](C)OC2=O)c1OCOC(=O)C(C)C [Compound F149] here?
Answer: 80 to 100%

Question: CCOCC(=O)OCOc1c(OC)ccnc1C(=O)N[C@H]1CCC[C@H](CC)[C@@H](Oc2ccccc2)[C@H](C)OC1=O [Compound F189] was tested. Which pest or weed control at 25 ppm did it give?
Answer: 80 to 100%

Question: Which pest or weed control at 25 ppm does the source give for COc1ccnc(C(=O)N[C@H]2CCC[C@H](C)[C@@H](Oc3ccccc3)[C@H](C)OC2=O)c1OCOC(=O)C(C)C [Compound F155] here?
Answer: 80 to 100%

Question: For CCOCC(=O)OCOc1c(OC)ccnc1C(=O)N[C@H]1CCC[C@H](CCC(C)C)[C@@H](OCC2CC2)[C@H](C)OC1=O [Compound F160], which pest or weed control at 25 ppm is on record?
Answer: 80 to 100%

same assay, conditions: Phakopsora pachyrhizi, topical, 72 h, 3 Day Curative, read-out: Disease Control PHAKPA 3DC

Question: With COc1ccnc(C(=O)N[C@H]2CCC[C@H](CCC(C)C)[C@@H](OCC3CC3)[C@H](C)OC2=O)c1OCOC(=O)C(C)C [Compound F149] as the molecule, how does the pest or weed control at 25 ppm read?
Answer: 0 to 80%

Question: CCOCC(=O)OCOc1c(OC)ccnc1C(=O)N[C@H]1CCC[C@H](CC)[C@@H](Oc2ccccc2)[C@H](C)OC1=O [Compound F189] was tested. Which pest or weed control at 25 ppm did it give?
Answer: 80 to 100%

Question: Which pest or weed control at 25 ppm does the source give for COc1ccnc(C(=O)N[C@H]2CCC[C@H](C)[C@@H](Oc3ccccc3)[C@H](C)OC2=O)c1OCOC(=O)C(C)C [Compound F155] here?
Answer: 80 to 100%

Question: Which pest or weed control at 25 ppm does the source give for CCOCC(=O)OCOc1c(OC)ccnc1C(=O)N[C@H]1CCC[C@H](CCC(C)C)[C@@H](OCC2CC2)[C@H](C)OC1=O [Compound F160] here?
Answer: 80 to 100%

test system: Puccinia triticina; Synonym: Puccinia recondite f. Sp. Tritici; test: Wheat Brown Rust (PUCCRT) disease control; assay type: in vivo; details: Puccinia triticina, topical, 24 h, 1 Day Protectant, rate 100 ppm; read-out: PUCCRT 1 DP disease control
Outline: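 Brown rust on first-leaf Yuma wheat: spore inoculation before or after spray application (acetone/Triton X-100 solution, or EC with Trycol in track spray), overnight 100% RH at 22 °C, disease developed at 24 °C. Severity scored 0–100% and converted to percent control against untreated.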

Question: Which pest or weed control at 100 ppm does the source give for COc1ccnc(C(=O)N[C@H]2CCC[C@H](CCC(C)C)[C@@H](OCC3CC3)[C@H](C)OC2=O)c1OCOC(=O)C(C)C [Compound F149] here?
Answer: 80 to 100%

Question: Which pest or weed control at 100 ppm does the source give for CCOCC(=O)OCOc1c(OC)ccnc1C(=O)N[C@H]1CCC[C@H](CC)[C@@H](Oc2ccccc2)[C@H](C)OC1=O [Compound F189] here?
Answer: 80 to 100%

Question: With COc1ccnc(C(=O)N[C@H]2CCC[C@H](C)[C@@H](Oc3ccccc3)[C@H](C)OC2=O)c1OCOC(=O)C(C)C [Compound F155] as the molecule, how does the pest or weed control at 100 ppm read?
Answer: 80 to 100%

Question: Which pest or weed control at 100 ppm does the source give for CCOCC(=O)OCOc1c(OC)ccnc1C(=O)N[C@H]1CCC[C@H](CCC(C)C)[C@@H](OCC2CC2)[C@H](C)OC1=O [Compound F160] here?
Answer: 80 to 100%

Question: Which pest or weed control at 100 ppm does the source give for COc1ccc(C[C@H]2CCC[C@H](NC(=O)c3nccc(OC)c3O)C(=O)O[C@@H](C)[C@@H]2OCC2CC2)cc1 [Compound F30] here?
Answer: 80 to 100%

same assay, conditions: Puccinia triticina, topical, 24 h, 1 Day Protectant, rate 121.5 g/H; read-out: PUCCRT 1 DP disease control

Question: COc1ccnc(C(=O)N[C@H]2CCC[C@H](CCC(C)C)[C@@H](OCC3CC3)[C@H](C)OC2=O)c1OCOC(=O)C(C)C [Compound F149] was tested. Which pest or weed control at 121.5 g/ha did it give?
Answer: 80 to 100%

Question: How did the pest or weed control at 121.5 g/ha turn out when CCOCC(=O)OCOc1c(OC)ccnc1C(=O)N[C@H]1CCC[C@H](CC)[C@@H](Oc2ccccc2)[C@H](C)OC1=O [Compound F189] was run?
Answer: 80 to 100%

Question: Which pest or weed control at 121.5 g/ha does the source give for COc1ccnc(C(=O)N[C@H]2CCC[C@H](C)[C@@H](Oc3ccccc3)[C@H](C)OC2=O)c1OCOC(=O)C(C)C [Compound F155] here?
Answer: 80 to 100%

Question: How did the pest or weed control at 121.5 g/ha turn out when CCOCC(=O)OCOc1c(OC)ccnc1C(=O)N[C@H]1CCC[C@H](CCC(C)C)[C@@H](OCC2CC2)[C@H](C)OC1=O [Compound F160] was run?
Answer: 80 to 100%

same assay, conditions: Puccinia triticina, topical, 72 h, 3 Day Curative, rate 100 ppm; read-out: PUCCRT 3 DC disease control

Question: How did the pest or weed control at 100 ppm turn out when COc1ccnc(C(=O)N[C@H]2CCC[C@H](CCC(C)C)[C@@H](OCC3CC3)[C@H](C)OC2=O)c1OCOC(=O)C(C)C [Compound F149] was run?
Answer: 80 to 100%

Question: With CCOCC(=O)OCOc1c(OC)ccnc1C(=O)N[C@H]1CCC[C@H](CC)[C@@H](Oc2ccccc2)[C@H](C)OC1=O [Compound F189] as the molecule, how does the pest or weed control at 100 ppm read?
Answer: 80 to 100%

Question: With COc1ccnc(C(=O)N[C@H]2CCC[C@H](C)[C@@H](Oc3ccccc3)[C@H](C)OC2=O)c1OCOC(=O)C(C)C [Compound F155] as the molecule, how does the pest or weed control at 100 ppm read?
Answer: 80 to 100%

Question: CCOCC(=O)OCOc1c(OC)ccnc1C(=O)N[C@H]1CCC[C@H](CCC(C)C)[C@@H](OCC2CC2)[C@H](C)OC1=O [Compound F160] was tested. Which pest or weed control at 100 ppm did it give?
Answer: 80 to 100%

Question: With COc1ccc(C[C@H]2CCC[C@H](NC(=O)c3nccc(OC)c3O)C(=O)O[C@@H](C)[C@@H]2OCC2CC2)cc1 [Compound F30] as the molecule, how does the pest or weed control at 100 ppm read?
Answer: 80 to 100%

same assay, conditions: Puccinia triticina, topical, 72 h, 3 Day Curative, rate 121.5 g/H; read-out: PUCCRT 3 DC disease control

Question: For COc1ccnc(C(=O)N[C@H]2CCC[C@H](CCC(C)C)[C@@H](OCC3CC3)[C@H](C)OC2=O)c1OCOC(=O)C(C)C [Compound F149], which pest or weed control at 121.5 g/ha is on record?
Answer: 80 to 100%

Question: How did the pest or weed control at 121.5 g/ha turn out when CCOCC(=O)OCOc1c(OC)ccnc1C(=O)N[C@H]1CCC[C@H](CC)[C@@H](Oc2ccccc2)[C@H](C)OC1=O [Compound F189] was run?
Answer: 80 to 100%

Question: COc1ccnc(C(=O)N[C@H]2CCC[C@H](C)[C@@H](Oc3ccccc3)[C@H](C)OC2=O)c1OCOC(=O)C(C)C [Compound F155] was tested. Which pest or weed control at 121.5 g/ha did it give?
Answer: 80 to 100%

Question: With CCOCC(=O)OCOc1c(OC)ccnc1C(=O)N[C@H]1CCC[C@H](CCC(C)C)[C@@H](OCC2CC2)[C@H](C)OC1=O [Compound F160] as the molecule, how does the pest or weed control at 121.5 g/ha read?
Answer: 80 to 100%
